These are literature values, as cited in patent US11384033B2, “Compositions with improved urease-inhibiting effect comprising (thio)phosphoric acid triamide and further compounds such as amines and colorants” (BASF SE, priority 2014, dated 2022).

The conditions of the data set: de-ionized water at 25° C. and atmospheric pressure.

SMILES strings stand for the structures.

As to `CC(O)CO` (stereo not shown) [propane-1,2-diol], the pKa value is on record as 14.9.
